Patent US9233086B2 (THE REGENTS OF THE UNIVERSITY OF MICHIGAN, priority 2010, dated 2016)
Read-outs that look alike come from different tables or passages of the source. *1 amine or outer side, *2 acyl side, *3 side chain or, on linkers, in order; H or OH if unused. Where a SMILES comes first, the peptide text is derived from it. [ ]: non-standard residue; d: D form. The star is where a group is joined. Isovaleryl = CC(C)CC(=O)*; Isobutyryl = CC(C)C(=O)*; Deg = CCC(N)(CC)C(=O)O; Pentanoyl = CCCCC(=O)*; PhAc = O=C(Cc1ccccc1)*; CO = O=C([*:1])[*:2]; NHBn = c1ccc(CN*)cc1; NHPh = c1ccc(N*)cc1; NHiPr = CC(C)N*

Target: WDR5 (Homo sapiens (Human), UniProt P61964)
Test: FP based competitive binding assay to WDR5
Settings: for times less potent than Ac-3mer: ratio vs Ac-3mer
Method: Another aspect of the invention is development of a Fluorescent Polarization (FP) based competitive binding assay. […] Next, the millipolarization (mP) values were measured at different time points in order to determine equilibrium duration and stability.
Accordingly, the optimal protein concentrations for the competitive assay was investigated.
All the FP based experiments were performed in MICROFLUOR® 2 Black, “U” Bottom, 96-well Microtiter Plates (ThermoSci.) and FP was measured as mP units in a microplate reader (Tecan Ultra) with excitation at 485 nm and emission at 530 nm. The Kd of the tracers and the IC50 value of the inhibitors were calculated using GraphPad Prism 4 software.
The binding affinities of the synthetic peptides shown in the study were measured using this competitive binding assay. A pre-incubated complex solution of WDR5Δ23 and the tracer in 120 μl assay buffer were added to dilutions of the test compound in 5 μl DMSO, giving final concentrations of WDR5Δ23 and the tracer of 4 nM and 0.6 nM, respectively. […] The plates were incubated with shaking at room temperature. The mP values were measured after five hours of incubation and Ki values were calculated using the equation described previously(31).

[1] = read-out: Binding Affinity to WDR5 (IC50 ± SD), Table 5 peptidomimetics
[2] = 4 nM WDR5Δ23, 0.6 nM 10mer-Thr-FAM tracer, Ki calculated by equation of ref. 31, read-out: Ki ± SD
[3] = 4 nM WDR5Δ23, 0.6 nM 10mer-Thr-FAM tracer, read-out: IC50 ± SD

Compound	IC50 [1]	further results
C[C@H](NC(=O)[C@H](CCCNC(=N)N)NC(=O)[C@H](C)NC(=O)Cc1ccccc1)C(N)=O [Compound 9I] (PhAc-Ala-Arg-Ala-NH2)	> 25 µM	–
CC(=O)N[C@@H](C)C(=O)N[C@@H](CCCNC(=N)N)C(=O)N(C)[C@@H](C)C(N)=O [Δ1, Ac-AR-(N—Me)A-NH2]	–	binding to WDR5 (in words): complete loss of its binding to WDR5
CC(=O)NC1(C(=O)N[C@@H](CCCNC(=N)N)C(=O)N[C@H](C(N)=O)C(C)C)CCC1 [Compound 4B]	< 1 µM	–
CC(=O)N[C@@H](C)C(=O)N[C@@H](CCCNC(=N)N)C(=O)N[C@H](C(N)=O)[C@@H](C)O [Compound 3I] (Ac-Ala-Arg-Thr-NH2)	< 1 µM	–
CC(=O)N[C@@H](C)C(=O)N[C@@H](CCCNC(=N)N)C(=O)N[C@@H](C)C(=O)NC(C)C [Compound 7A] (Ac-Ala-Arg-Ala-NHiPr)	< 1 µM	–
CCC(CC)NC(=O)[C@H](CCCNC(=N)N)NC(=O)C(CC)(CC)NC(=O)C(C)C [Compound 11B]	< 1 µM	–
CCC(CC)(NC(=O)C(C)C)C(=O)N[C@@H](CCCNC(=N)N(C)C)C(=O)NC1(C(N)=O)CCCC1 [Compound 10G]	> 1 µM	–
CC(=O)N[C@@H](C)C(=O)N[C@@H](CCCNC(=N)N)C(=O)N[C@@H](C)C(=O)N(C)C [Δ2b, Ac-ARA-CONMe2] (Ac-Ala-Arg-Ala-NMe2)	–	Ki [2]: 6.5 ± 1.2 µM; IC50 [3]: 30 ± 5 µM; times less potent than Ac-3mer: 50
CCC(CC)(NC(=O)C(C)C)C(=O)N[C@@H](CCCNC(=N)N)C(=O)NCc1ccccc1 [Compound 11D] (Isobutyryl-[Deg]-Arg-NHBn)	< 30 µM	–
C[C@H](NC(=O)[C@H](CCCNC(=N)N)NC(=O)[C@H](C)NC(=O)CC1CCCC1)C(N)=O [Compound 9G]	> 1 µM	–
CC[C@H](NC(=O)[C@H](CCCNC(=N)N)NC(=O)C1(NC(C)=O)CCC1)C(N)=O [Compound 6D]	< 1 µM	–
C[C@H](N)C(=O)N[C@@H](CCCNC(=N)N)C(=O)N[C@H](C(=O)N[C@@H](CCCCN)C(=O)N[C@@H](CCC(N)=O)C(=O)N[C@H](C(=O)N[C@@H](C)C(=O)N[C@@H](CCCNC(=N)N)C(=O)N[C@@H](CCCCN)C(=O)N[C@@H](CO)C(N)=O)[C@@H](C)O)[C@@H](C)O [Compound H3-10mer, reference compound]	–	Ki (4 nM WDR5Δ23, 0.6 nM 10mer-Thr-FAM tracer, Ki calculated by equation of ref. 31, listed as wild-type H3 peptide, read-out: Ki ± SD): 15 µM; IC50 [3]: 70 ± 6 µM
CCC(CC)(NC(=O)C(C)C)C(=O)N[C@@H](CCCNC(=N)N)C(=O)NC(C(C)C)C(C)C [Compound 11J]	< 10 µM	–
CC(=O)NC1(C(=O)N[C@@H](CCCNC(=N)N)C(=O)NC2(C(N)=O)CCCC2)CCC1 [Compound 6E]	< 1 µM	–
CC(=O)N[C@@H](C)C(=O)N[C@@H](CCCNC(=N)N)C(=O)N[C@@H](C)C(N)=O [Ac-3mer, Ac-ARA-NH2] (Ac-Ala-Arg-Ala-NH2)	–	Ki [2]: 0.12 ± 0.01 µM; IC50 [3]: 0.54 ± 0.03 µM
CC(=O)N[C@@H](C)C(=O)N[C@@H](CCCNC(=N)N)C(=O)N[C@@H](C)C(=O)N[C@@H](CCC(=O)O)C(=O)N[C@H](C(=O)N[C@@H](Cc1c[nH]cn1)C(=O)N[C@@H](CC(C)C)C(=O)N[C@@H](CCCNC(=N)N)C(=O)N[C@@H](CCCCN)C(=O)N[C@@H](CO)C(N)=O)C(C)C [Ac-10mer]	–	IC50 [3]: 0.02 ± 0.004 µM; times more potent than the WIN peptide (Ki ratio vs WIN): 50; Ki (read-out: Ki): 0.003 µM
CC(=O)N[C@@H](C)C(=O)N[C@H](C(=O)N[C@@H](C)C(N)=O)C1CCN(C(=N)N)CC1 [Compound 2G]	> 10 µM	–
CC[C@H](NC(=O)[C@H](CCCNC(=N)N)NC(=O)C1(NC(C)=O)CCC1)C(=O)NC(c1ccccc1)c1ccccc1 [Compound 8B]	< 1 µM	–
CC(C)C(=O)NC1(C(=O)N[C@@H](CCCNC(=N)N)C(=O)NC2(C(=O)NC(c3ccccc3)c3ccccc3)CCCC2)CCC1 [Compound 10B]	< 1 µM	–
Ac-SARAEVHLRKS-NH2 [Ac-11mer]	–	Ki [2]: 0.2 ± 0.03 µM; IC50 [3]: 1.04 ± 0.14 µM

Compound	IC50 [1]	further results
CC[C@H](C)NC(=O)[C@H](CCCNC(=N)N)NC(=O)C(CC)(CC)NC(=O)C(C)C [Compound 11A]	< 3 µM	–
CCC(CC)(NC(=O)C(C)C)C(=O)N[C@@H](CCCNC(=N)N)C(=O)N[C@H](C)c1ccccc1 [Compound 11F]	< 30 µM	–
CC(=O)N[C@H](C(=O)N[C@@H](CCCNC(=N)N)C(=O)NC1(C(N)=O)CCCCC1)C(C)C [Compound 5D]	< 10 µM	–
Ac-RAEVHLRKS-NH2 [Ac-9mer]	–	fold decrease of binding affinity relative to Ac-10mer (ratio vs Ac-10mer): 1500
CCC(CC)(NC(=O)C(C)C)C(=O)N[C@H](CCCNC(=N)N)C(=O)NC1(C(N)=O)CCCC1 [Compound 10D]	< 20 µM	–
C[C@H](NC(=O)[C@H](CCCNC(=N)N)NC(=O)[C@H](C)NC(=O)C1CC1)C(N)=O [Compound 9E]	< 5 µM	–
CCC(CC)(NC(=O)C(C)C)C(=O)N[C@@H](CCCNC(=N)N)C(=O)N[C@@H](C)c1ccccc1 [Compound 11G]	< 30 µM	–
CCCCC(=O)N[C@@H](C)C(=O)N[C@@H](CCCNC(=N)N)C(=O)N[C@@H](C)C(N)=O [Compound 9D] (Pentanoyl-Ala-Arg-Ala-NH2)	> 10 µM	–
CC(=O)NC1(C(=O)N[C@@H](CCCNC(=N)N)C(=O)N[C@H](C(N)=O)C(C)C)CCCC1 [Compound 4C]	< 1 µM	–
COC(=O)[C@H](C)NC(=O)[C@H](CCCNC(=N)N)NC(=O)[C@H](C)NC(C)=O [Δ2c, Ac-ARA-COOCH3] (Ac-Ala-Arg-Ala-OMe)	–	Ki [2]: 1.6 ± 0.2 µM; IC50 [3]: 7.3 ± 0.8 µM; times less potent than Ac-3mer: 10
CC(=O)N[C@@H](C)C(=O)N[C@@H](CCCNC(=N)N)C(=O)N[C@@H](C)C(=O)Nc1ccccc1 [Compound 7D] (Ac-Ala-Arg-Ala-NHPh)	< 1 µM	–
CC(=O)N[C@@H](C)C(=O)N[C@@H](CCCN)C(=O)N[C@@H](C)C(N)=O [Compound 2B]	> 1 µM	–
CC(=O)N[C@@H](C)C(=O)N[C@@H](CCCNC(=N)N)C(=O)N[C@@H](C)C(=O)NC(c1ccccc1)c1ccccc1 [Compound 7F]	< 1 µM	–
CC(C)CC(=O)N[C@@H](C)C(=O)N[C@@H](CCCNC(=N)N)C(=O)N[C@@H](C)C(N)=O [Compound 9B] (Isovaleryl-Ala-Arg-Ala-NH2)	> 10 µM	–
CNC(=O)N[C@@H](C)C(=O)N[C@@H](CCCNC(=N)N)C(=O)N[C@@H](C)C(N)=O [Compound 9K] ({NHMe-CO}-Ala-Arg-Ala-NH2)	< 10 µM	–
CCC(CC)(NC(=O)C(C)C)C(=O)N[C@@H](CCCNC(=N)N)C(=O)NCCCc1ccccc1 [Compound 11M]	> 1 µM	–
Ac-ARAEV-NH2 [Ac-5mer, Ac-ARAEV-NH2]	–	IC50 (read-out: IC50 ± SD): 0.75 ± 0.1 µM; Ki (read-out: Ki ± SD): 0.16 ± 0.03 µM
CC(=O)N[C@@H](C)C(=O)N[C@@H](CCCCN)C(=O)N[C@@H](C)C(N)=O [Compound 2C] (Ac-Ala-Lys-Ala-NH2)	> 1 µM	–
CC(=O)N[C@@H](C)C(=O)N[C@@H](CCCNC(=N)N)C(=O)N[C@H](C(=O)N[C@@H](CCCCN)C(=O)N[C@@H](CCC(N)=O)C(=O)N[C@H](C(=O)N[C@@H](C)C(=O)N[C@@H](CCCNC(=N)N)C(=O)N[C@@H](CCCCN)C(=O)N[C@@H](CO)C(N)=O)[C@@H](C)O)[C@@H](C)O [Ac-H3-10mer]	–	IC50 [3]: 0.006 ± 0.002 µM; fold increase of binding affinity to WDR5 on acetylation of the free amino group (vs corresponding unacetylated H3 peptide): greater than 10,000
